{
  "source": "patent US9855265B2",
  "about": "“Methods for treating cancer with TrkA receptor tyrosine kinase antagonists” (VM Oncology LLC, priority 2014, dated 2018)",
  "key": {"[1]": {"test": "Pharmacokinetics and bioavailability in CD-1 mice", "conditions": "in vivo", "description": "Pharmacokinetic and bioavailabilities after oral and intraperitoneal (i.p.) treatment bioavailability in CD-1 mice. Pharmacokinetics and bioavailability of after oral and i.p. treatment in CD-1 mice (n=4 per dose group) are determined."}, "PKCbetaI": {"target": "PKCbetaI (Homo sapiens, UniProt P05771)", "test": "radiometric kinase assay, other kinases: PKCbetaI", "format": "biochemical", "conditions": "duplicate", "description": "(§1) Compound inhibition in a radiometric based mixed micelle assay: In a final reaction volume of 25 μL, TrkA (h) ([…]) is incubated with the kinase reaction buffer (20 mM HEPES (pH 7.5), 10 mM MgCl2, 1 mM EGTA, 0.02% Brij 35, 0.02 mg/ml BSA, 0.1 mM Na3VO4, 2 mM DTT, 1% DMSO), 0.2 mg/ml substrate PolyEY(4:1) and […], and [^33P-ATP](specific activity approx. 500 cpm/pmol, concentration as required). The reaction is initiated by the addition of the MgATP mix. After incubation for at least 40 minutes at room temperature, the reaction is stopped by the addition of 5 μL of a 3% phosphoric acid solution. 10 μL of the reaction is then spotted onto a P30 filtermat and washed three times for 5 minutes in 75 mM phosphoric acid and once in methanol prior to drying and scintillation counting. TrkA: Recombinant Human Cytoplasmic Domain (amino acids 441-796), Histidine-tagged, expressed in insect cells. Activated in vitro via auto-phosphorylation. Mw=42.8 kDa. Substrates for kinases: poly(EY) for TRKA; poly(EY)(4:1) with 2 mM MnCl2, average Mw=16 kDa Standard conditions (unless otherwise specified): 30 nM TRKA, 0.2 mg/ml poly(EY)+2 mM MnCl2, and 10 μM ([γ-^33P]) ATP. Using the similar assay condition with other kinases of recombinant human cytoplasmic domain, the activities of other kinases could be also measured."}, "ITK": {"target": "ITK (Homo sapiens, UniProt Q08881)", "sequence (Q08881 whole entry)": "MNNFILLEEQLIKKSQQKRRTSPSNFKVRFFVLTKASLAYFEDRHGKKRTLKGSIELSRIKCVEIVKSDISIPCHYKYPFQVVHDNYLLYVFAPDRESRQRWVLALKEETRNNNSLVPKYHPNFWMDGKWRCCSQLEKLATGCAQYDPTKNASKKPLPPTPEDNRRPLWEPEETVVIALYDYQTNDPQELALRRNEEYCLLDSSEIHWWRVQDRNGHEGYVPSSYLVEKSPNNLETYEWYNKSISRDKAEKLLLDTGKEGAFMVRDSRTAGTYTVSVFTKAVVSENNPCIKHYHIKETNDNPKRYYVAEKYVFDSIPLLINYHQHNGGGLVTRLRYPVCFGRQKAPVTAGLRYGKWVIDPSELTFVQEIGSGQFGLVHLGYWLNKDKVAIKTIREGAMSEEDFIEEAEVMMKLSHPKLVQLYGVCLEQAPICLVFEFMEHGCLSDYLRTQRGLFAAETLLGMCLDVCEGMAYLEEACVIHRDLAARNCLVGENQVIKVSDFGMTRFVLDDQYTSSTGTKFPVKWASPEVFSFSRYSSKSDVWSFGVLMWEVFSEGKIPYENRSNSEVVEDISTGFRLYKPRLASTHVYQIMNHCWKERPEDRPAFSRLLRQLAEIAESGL", "test": "radiometric kinase assay, other kinases: ITK", "format": "biochemical", "conditions": "duplicate", "description": "as §1"}, "TrkB": {"target": "TrkB (Homo sapiens, UniProt Q16620)", "sequence (Q16620 32-822)": "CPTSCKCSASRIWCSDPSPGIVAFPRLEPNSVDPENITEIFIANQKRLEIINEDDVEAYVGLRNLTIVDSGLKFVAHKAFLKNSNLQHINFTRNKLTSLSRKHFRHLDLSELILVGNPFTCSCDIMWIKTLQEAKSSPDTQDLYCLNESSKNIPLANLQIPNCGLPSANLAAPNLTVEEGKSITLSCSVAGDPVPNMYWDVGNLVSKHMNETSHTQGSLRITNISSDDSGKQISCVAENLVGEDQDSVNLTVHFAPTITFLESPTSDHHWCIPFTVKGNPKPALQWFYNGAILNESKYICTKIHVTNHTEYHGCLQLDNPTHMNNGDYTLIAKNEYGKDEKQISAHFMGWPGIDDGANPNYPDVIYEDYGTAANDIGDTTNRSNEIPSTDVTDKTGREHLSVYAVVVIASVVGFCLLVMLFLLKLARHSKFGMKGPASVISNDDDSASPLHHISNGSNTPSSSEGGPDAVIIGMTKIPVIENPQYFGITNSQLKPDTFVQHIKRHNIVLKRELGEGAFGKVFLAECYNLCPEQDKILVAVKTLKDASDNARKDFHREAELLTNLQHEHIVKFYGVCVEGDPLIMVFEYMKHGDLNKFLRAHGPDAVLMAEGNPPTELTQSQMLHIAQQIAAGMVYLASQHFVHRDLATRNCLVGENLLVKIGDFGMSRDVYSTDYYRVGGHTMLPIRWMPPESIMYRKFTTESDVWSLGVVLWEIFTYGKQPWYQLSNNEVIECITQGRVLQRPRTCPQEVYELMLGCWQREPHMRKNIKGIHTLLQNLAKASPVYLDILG", "test": "live whole cell based functional assay, BDNF stimulated TrkB activation", "set-up": "expressed in transfected cells", "conditions": "triplicate"}, "PKCepsilon": {"target": "PKCepsilon (Homo sapiens, UniProt Q02156)", "test": "radiometric kinase assay, other kinases: PKCepsilon", "format": "biochemical", "conditions": "duplicate", "description": "as §1"}, "EPHA1": {"target": "T1, EPHA1 (Homo sapiens, UniProt P21709)", "T1 construct": "other kinases of recombinant human cytoplasmic domain", "T1 sequence (P21709 569-976 limits assumed)": "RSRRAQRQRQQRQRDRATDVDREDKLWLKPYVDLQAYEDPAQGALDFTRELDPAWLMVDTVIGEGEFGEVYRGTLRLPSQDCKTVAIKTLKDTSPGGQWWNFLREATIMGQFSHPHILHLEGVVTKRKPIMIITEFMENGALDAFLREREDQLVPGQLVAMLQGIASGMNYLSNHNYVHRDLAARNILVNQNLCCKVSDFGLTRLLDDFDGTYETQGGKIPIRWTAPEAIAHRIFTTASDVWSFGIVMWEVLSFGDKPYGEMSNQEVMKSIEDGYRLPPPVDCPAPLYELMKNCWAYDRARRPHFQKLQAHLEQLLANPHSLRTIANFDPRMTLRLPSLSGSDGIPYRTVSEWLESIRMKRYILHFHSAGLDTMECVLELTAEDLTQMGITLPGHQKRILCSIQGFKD", "test": "radiometric kinase assay, other kinases: EPHA1", "format": "biochemical", "conditions": "duplicate", "description": "as §1"}, "RET": {"target": "T2, RET (Homo sapiens, UniProt P07949)", "T2 construct": "other kinases of recombinant human cytoplasmic domain", "test": "radiometric kinase assay, other kinases: RET", "format": "biochemical", "conditions": "duplicate", "description": "as §1"}, "PDGFRa": {"target": "T3, PDGFRa (Homo sapiens, UniProt P16234)", "T3 construct": "other kinases of recombinant human cytoplasmic domain", "T3 sequence (P16234 550-1089 limits assumed)": "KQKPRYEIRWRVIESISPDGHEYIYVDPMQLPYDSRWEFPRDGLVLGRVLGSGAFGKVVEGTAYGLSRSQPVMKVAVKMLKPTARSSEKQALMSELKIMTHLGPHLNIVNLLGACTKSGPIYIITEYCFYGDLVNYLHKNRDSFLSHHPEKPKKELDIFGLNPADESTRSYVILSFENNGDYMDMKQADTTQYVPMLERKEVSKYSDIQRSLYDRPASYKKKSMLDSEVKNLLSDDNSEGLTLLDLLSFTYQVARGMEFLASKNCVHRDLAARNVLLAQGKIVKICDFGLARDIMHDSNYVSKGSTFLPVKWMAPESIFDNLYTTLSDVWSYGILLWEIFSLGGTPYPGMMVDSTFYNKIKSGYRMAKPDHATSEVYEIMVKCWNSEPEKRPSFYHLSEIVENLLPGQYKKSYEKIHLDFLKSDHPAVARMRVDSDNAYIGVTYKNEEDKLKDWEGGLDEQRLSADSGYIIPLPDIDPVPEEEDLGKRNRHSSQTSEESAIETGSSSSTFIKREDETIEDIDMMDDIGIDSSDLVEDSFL", "test": "radiometric kinase assay, other kinases: PDGFRa", "format": "biochemical", "conditions": "duplicate", "description": "as §1"}, "MUSK": {"target": "T4, MUSK (Homo sapiens, UniProt O15146)", "T4 construct": "other kinases of recombinant human cytoplasmic domain", "T4 sequence (O15146 517-869 limits assumed)": "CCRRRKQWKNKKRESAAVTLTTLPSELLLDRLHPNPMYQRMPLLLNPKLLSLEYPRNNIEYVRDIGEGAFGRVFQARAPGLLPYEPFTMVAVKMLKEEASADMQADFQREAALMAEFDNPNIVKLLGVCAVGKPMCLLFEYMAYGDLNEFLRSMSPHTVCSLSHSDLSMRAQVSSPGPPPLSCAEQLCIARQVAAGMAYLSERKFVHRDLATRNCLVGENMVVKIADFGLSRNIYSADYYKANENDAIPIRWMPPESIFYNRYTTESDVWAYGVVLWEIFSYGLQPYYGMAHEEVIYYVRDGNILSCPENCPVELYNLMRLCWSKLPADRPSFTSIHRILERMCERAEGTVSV", "test": "radiometric kinase assay, other kinases: MUSK", "format": "biochemical", "conditions": "duplicate", "description": "as §1"}, "PKCeta": {"target": "PKCeta (Homo sapiens, UniProt P24723)", "test": "radiometric kinase assay, other kinases: PKCeta", "format": "biochemical", "conditions": "duplicate", "description": "as §1"}, "PKCzeta": {"target": "PKCzeta (Homo sapiens, UniProt Q05513)", "test": "radiometric kinase assay, other kinases: PKCzeta", "format": "biochemical", "conditions": "duplicate", "description": "as §1"}, "PKA": {"target": "PKA (Homo sapiens, UniProt P17612)", "test": "radiometric kinase assay, other kinases: PKA", "format": "biochemical", "conditions": "duplicate", "description": "as §1"}, "VEGFR3/FLT4": {"target": "T5, VEGFR3/FLT4 (Homo sapiens, UniProt P35916)", "T5 construct": "other kinases of recombinant human cytoplasmic domain", "T5 sequence (P35916 797-1363 limits assumed)": "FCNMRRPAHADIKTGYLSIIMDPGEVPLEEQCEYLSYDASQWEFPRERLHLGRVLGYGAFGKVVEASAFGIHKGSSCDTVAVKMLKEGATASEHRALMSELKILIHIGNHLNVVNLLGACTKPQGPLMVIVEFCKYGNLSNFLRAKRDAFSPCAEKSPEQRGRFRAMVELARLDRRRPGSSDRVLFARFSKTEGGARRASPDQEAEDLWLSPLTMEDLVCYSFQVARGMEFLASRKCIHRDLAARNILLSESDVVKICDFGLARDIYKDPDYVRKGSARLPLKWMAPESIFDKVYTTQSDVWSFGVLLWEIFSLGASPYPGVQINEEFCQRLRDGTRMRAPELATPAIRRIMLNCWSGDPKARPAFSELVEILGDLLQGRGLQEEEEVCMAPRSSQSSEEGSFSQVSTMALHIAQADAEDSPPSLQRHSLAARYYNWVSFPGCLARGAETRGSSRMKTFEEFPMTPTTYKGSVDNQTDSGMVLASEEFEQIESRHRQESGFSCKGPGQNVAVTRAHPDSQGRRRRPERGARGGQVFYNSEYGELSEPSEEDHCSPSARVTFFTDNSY", "test": "radiometric kinase assay, other kinases: VEGFR3/FLT4", "format": "biochemical", "conditions": "duplicate", "description": "as §1"}, "PKCiota": {"target": "PKCiota (Homo sapiens, UniProt P41743)", "sequence (P41743 whole entry)": "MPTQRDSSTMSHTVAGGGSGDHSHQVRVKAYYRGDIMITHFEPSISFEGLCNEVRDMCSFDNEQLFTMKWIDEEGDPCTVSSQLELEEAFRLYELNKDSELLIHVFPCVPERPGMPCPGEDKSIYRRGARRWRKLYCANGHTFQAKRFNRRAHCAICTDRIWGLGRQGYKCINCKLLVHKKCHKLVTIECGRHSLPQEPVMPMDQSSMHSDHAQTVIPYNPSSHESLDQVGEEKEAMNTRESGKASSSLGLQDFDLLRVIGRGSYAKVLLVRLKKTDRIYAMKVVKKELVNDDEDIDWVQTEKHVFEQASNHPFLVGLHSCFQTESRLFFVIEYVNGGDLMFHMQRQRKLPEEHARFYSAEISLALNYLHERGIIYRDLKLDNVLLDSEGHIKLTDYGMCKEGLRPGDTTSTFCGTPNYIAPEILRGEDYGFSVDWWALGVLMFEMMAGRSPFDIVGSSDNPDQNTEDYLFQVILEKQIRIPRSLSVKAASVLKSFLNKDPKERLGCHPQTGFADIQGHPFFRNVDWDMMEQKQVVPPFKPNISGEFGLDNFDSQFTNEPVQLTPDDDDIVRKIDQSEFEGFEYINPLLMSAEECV", "test": "radiometric kinase assay, other kinases: PKCiota", "format": "biochemical", "conditions": "duplicate", "description": "as §1"}, "PDGFRb": {"target": "T6, PDGFRb (Homo sapiens, UniProt P09619)", "T6 construct": "other kinases of recombinant human cytoplasmic domain", "T6 sequence (P09619 554-1106 limits assumed)": "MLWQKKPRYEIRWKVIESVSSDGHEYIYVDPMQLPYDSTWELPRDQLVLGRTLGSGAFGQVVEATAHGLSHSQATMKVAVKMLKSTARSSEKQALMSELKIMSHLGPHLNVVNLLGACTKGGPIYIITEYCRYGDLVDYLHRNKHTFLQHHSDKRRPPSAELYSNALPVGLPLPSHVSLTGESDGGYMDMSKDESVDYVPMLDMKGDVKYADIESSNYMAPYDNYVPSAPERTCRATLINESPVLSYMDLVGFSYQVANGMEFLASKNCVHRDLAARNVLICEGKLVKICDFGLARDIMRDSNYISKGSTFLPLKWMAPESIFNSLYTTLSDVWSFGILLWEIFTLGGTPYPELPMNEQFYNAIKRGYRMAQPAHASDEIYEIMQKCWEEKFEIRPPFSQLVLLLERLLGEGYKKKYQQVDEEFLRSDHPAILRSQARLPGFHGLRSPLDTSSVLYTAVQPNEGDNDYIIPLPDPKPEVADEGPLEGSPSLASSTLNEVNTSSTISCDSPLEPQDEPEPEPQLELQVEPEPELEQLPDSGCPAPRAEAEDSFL", "test": "radiometric kinase assay, other kinases: PDGFRb", "format": "biochemical", "conditions": "duplicate", "description": "as §1"}, "[2]": {"test_system": "carrageenan-induced pain in rats", "test": "Carrageenan Pain Model", "format": "in vivo, Sprague-Dawley rats", "conditions": "carrageenan rat model, 150 mg/kg oral dose, compared to indomethacin", "description": "Carrageenan Pain Model The carrageenan model is a fast, reliable model used to assess the ability of analgesics to block inflammatory pain. The analgesic effects of test article combinations on pain generation are assayed using the carrageenan-induced pain model in rats. Adult male Sprague-Dawley rats are administered study drugs orally (vehicle, compounds of present disclosure) once daily for 2 days (day −2 and day −1) and 30 minutes prior to the carrageenan injection on day 0 (time=0). For the carrageenan injection, animals are lightly anesthetized and 0.1 ml of 2% carrageenan is injected into the plantar surface of the right hind paw. The positive control indomethacin (30 mg/kg, p.o.) is administered orally immediately before the carrageenan injection. Paw volumes (right and left) are measured using a Plethysmometer before drug administration on day −2 and serve as a baseline measurement. The paw volumes are measured again two hours post carrageenan injection. The degree of mechanical allodynia is measured by a blinded observer using Von Frey filaments applied to the plantar surface of the hind paws in an increasing numerical order. Each filament increases the force applied on the paw. The filaments are applied until animal paw withdrawal is achieved. […] Results are expressed as mean change from baseline across five timepoints post carrageenan injection."}, "AKT1": {"target": "AKT1 (Homo sapiens, UniProt P31749)", "sequence (P31749 whole entry)": "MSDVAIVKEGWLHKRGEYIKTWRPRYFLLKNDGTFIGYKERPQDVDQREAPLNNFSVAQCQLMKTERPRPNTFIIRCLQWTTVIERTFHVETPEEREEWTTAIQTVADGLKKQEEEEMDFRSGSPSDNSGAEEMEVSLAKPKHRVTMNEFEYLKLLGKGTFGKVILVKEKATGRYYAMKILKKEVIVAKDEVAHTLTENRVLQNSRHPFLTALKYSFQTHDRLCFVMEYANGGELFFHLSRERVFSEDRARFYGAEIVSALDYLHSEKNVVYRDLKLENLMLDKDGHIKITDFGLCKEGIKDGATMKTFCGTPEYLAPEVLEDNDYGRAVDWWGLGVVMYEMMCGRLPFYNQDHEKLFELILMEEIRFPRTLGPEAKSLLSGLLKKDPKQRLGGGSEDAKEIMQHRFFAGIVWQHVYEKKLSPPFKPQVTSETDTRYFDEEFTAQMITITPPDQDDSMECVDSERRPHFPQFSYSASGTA", "test": "radiometric kinase assay, other kinases: AKT1", "format": "biochemical", "conditions": "duplicate", "description": "as §1"}},
  "note": "Read-outs that look alike come from different tables or passages of the source.",
  "data": [
    {"smiles": "Nc1c(N2CCN(C3CCCCC3)CC2)cc(Nc2ccc(C(=O)O)cc2)c2c1C(=O)c1ccccc1C2=O", "note": "[Compound 12, 4-{[4-amino-3-(4-cyclohexylpiperazin-1-yl)-9,10-dioxo-9,10-dihydroanthracen-1-yl]amino}benzoic acid]", "values": [
      {"measurement": "half-life", "setting": "[1]; CD-1, mouse, ip, 50 mg/kg", "result": "~210", "unit": "min"},
      {"measurement": "half-life", "setting": "[1]; CD-1, mouse, iv", "result": "~60", "unit": "min"},
      {"measurement": "bioavailability", "setting": "[1]; CD-1, mouse, po, 50 mg/kg", "result": "~100", "unit": "%"},
      {"measurement": "half-life", "setting": "[1]; CD-1, mouse, po, 50 mg/kg", "result": "~270", "unit": "min"},
      {"measurement": "bioavailability", "setting": "[1]; mouse, ip, CD-1 mice, 50 mg/kg i.p. dosing, read-out: i.p. bioavailability", "result": "~100", "unit": "%"},
      {"measurement": "IC50", "setting": "PKCbetaI", "result": "> 10", "unit": "µM"},
      {"measurement": "IC50", "setting": "ITK", "result": "> 10", "unit": "µM"},
      {"measurement": "IC50", "setting": "TrkB", "result": "> 10", "unit": "µM"},
      {"measurement": "IC50", "setting": "PKCepsilon", "result": "> 10", "unit": "µM"},
      {"measurement": "IC50", "setting": "EPHA1", "result": "> 10", "unit": "µM"},
      {"measurement": "IC50", "setting": "RET", "result": "> 10", "unit": "µM"},
      {"measurement": "IC50", "setting": "PDGFRa", "result": "> 10", "unit": "µM"},
      {"measurement": "IC50", "setting": "MUSK", "result": "> 10", "unit": "µM"},
      {"measurement": "IC50", "setting": "PKCeta", "result": "> 10", "unit": "µM"},
      {"measurement": "IC50", "setting": "PKCzeta", "result": "> 10", "unit": "µM"},
      {"measurement": "IC50", "setting": "PKA", "result": "> 10", "unit": "µM"},
      {"measurement": "IC50", "setting": "VEGFR3/FLT4", "result": "> 10", "unit": "µM"},
      {"measurement": "IC50", "setting": "PKCiota", "result": "> 10", "unit": "µM"},
      {"measurement": "IC50", "setting": "PDGFRb", "result": "> 10", "unit": "µM"},
      {"measurement": "relative analgesic effect", "setting": "[2]", "result": "about 85%"},
      {"measurement": "IC50", "setting": "AKT1", "result": "> 10", "unit": "µM"}
    ]}
  ]
}
